Measurements published in patent publication US20090023784A1, “USE OF DEFERIPRONE AND METHODS TO TREAT AND/OR PREVENT FRIEDREICH ATAXIA RESULTING FROM INTRACELLULAR MISHANDLING OF IRON” (priority 2006, published 2009).

Legend:
[1] = 52-week twice daily oral (gavage) toxicity study of deferiprone in non-iron-loaded monkeys; format: in vivo, cynomolgus monkeys
Description: As part of a larger study on the potential toxicity of iron chelators, we evaluated the toxicity of deferiprone in normal monkeys receiving 150 mg/kg/day (75 mg/kg twice daily) for 1 year.
To determine the toxicity of deferiprone in non-iron-loaded cynomolgus monkeys following twice daily oral (gavage) administration for 52 consecutive weeks, and to evaluate the regression of any toxic effect during a 4-week treatment-free period.
Groups of 4 male and 4 female monkeys (2 to 3 years old) were dosed by nasogastric intubation at (0.5% w/v aqueous carboxymethylcellulose vehicle) 75 mg/kg deferiprone twice daily (bid), with 6-8 hours between doses, for at least 364 days.
Clinical signs, body weights and food intake were assessed at frequent intervals. Ophthalmological and cardiovascular examinations were carried out in Weeks 17, 30, 43, 56 and 60. Hematology, coagulation, clinical chemistry and urine parameters were measured at baseline and in Weeks 8, 16, 30, 41, 56 and 60. Blood samples were taken on the first day of dosing, and in Weeks 17 and 56 for assessment of the serum deferiprone time-concentration profile. A full necropsy was performed on each animal, selected organs weighed, and histopathological examination of abnormalities and selected tissues conducted.

[2] = tested on: intracellular iron pools of macrophages, hepatocytes, and cardiomyocyte cell lines; conditions: living cells, fluorescence probes; cited from earlier work

Cc1c(O)c(=O)ccn1C [Deferiprone, 3-hydroxy-1,2-dimethylpyridin-4-one]
adverse effect (conclusion) ([1]; 75 mg/kg twice daily orally for 52 weeks): without significant adverse effect | Clinical signs ([1]; 75 mg/kg twice daily, 52 weeks): incidental to administration of deferiprone by the IP route | deferiprone-related effects on body weight, food intake, ophthalmology, cardiac conduction, blood pressure, heart rate, hematology or urine composition ([1]; 75 mg/kg twice daily, oral gavage, 52 weeks): no deferiprone-related effects | microscopic findings ([1]; 75 mg/kg twice daily, oral gavage, 52 weeks, histopathology): No microscopic findings | macroscopic findings ([1]; 75 mg/kg twice daily, oral gavage, 52 weeks, necropsy): No macroscopic findings related to deferiprone | access to intracellular iron pools / chelation [2]: readily enter most cells and efficiently reach the major intracellular sites of iron accumulation
